Measured values from article PMC5270475, “Structural Characterization and Ligand/Inhibitor Identification Provide Functional Insights into the Mycobacterium tuberculosis Cytochrome P450 CYP126A1” (The Journal of Biological Chemistry, 2016).

Each compound was assayed against T1, CYP126A1 (Mycobacterium tuberculosis, UniProt P9WPN9) (assay: UV-visible absorbance titration (heme Soret shift)). Settings: read-out: Kd.
T1 construct: gene cyp126
Format: binding

T1 sequence (P9WPN9 whole entry): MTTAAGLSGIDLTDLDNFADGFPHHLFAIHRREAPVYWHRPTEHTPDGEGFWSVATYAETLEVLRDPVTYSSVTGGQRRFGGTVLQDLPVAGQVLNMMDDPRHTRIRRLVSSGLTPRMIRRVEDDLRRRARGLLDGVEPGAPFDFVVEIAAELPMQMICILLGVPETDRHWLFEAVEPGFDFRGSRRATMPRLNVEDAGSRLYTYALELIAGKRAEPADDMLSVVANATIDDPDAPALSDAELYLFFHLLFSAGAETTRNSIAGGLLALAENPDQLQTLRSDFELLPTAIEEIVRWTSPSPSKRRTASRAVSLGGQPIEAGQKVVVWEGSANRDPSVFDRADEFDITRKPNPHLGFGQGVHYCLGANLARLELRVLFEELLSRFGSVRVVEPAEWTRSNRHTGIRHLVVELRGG

| Structure (SMILES) | Kd [µM] |
| --- | --- |
| O=C(Nc1nc2ccc(F)cc2s1)c1nc(SCc2ccccc2F)ncc1Cl [compound 6, Compound 6] | 25.3 ± 0.5 |
| COc1ccc(-c2noc(CN(C(=O)Cc3ccc([N+](=O)[O-])cc3)C(C)C)n2)cc1 [compound 1, N-isopropyl-N-((3-(4-methoxyphenyl)-1,2,4-oxadiazol-5-yl)methyl)-2-(4-nitrophenyl)acetamide] | 18.3 ± 1.3 |
| Cc1ccc(NC(=O)c2cccc3nc4ccccc4nc23)cc1 [compound 3, Compound 3] | 56.1 ± 2.2 |
| O=C1CCCC2Oc3c(cc(NS(=O)(=O)c4ccc([N+](=O)[O-])cc4)c4ccccc34)C12 (stereo not drawn) [compound 2, Compound 2] | 2.85 ± 0.15 |
| Cc1cccc(CSc2ncc(Cl)c(C(=O)Nc3nnc(C)s3)n2)c1 [compound 5, Compound 5] | 6.15 ± 0.31 |
| O=C1CC(N2CCN(Cc3ccc4c(c3)OCO4)CC2)C(=O)N1Cc1ccc(Cl)cc1 (stereo not drawn) [compound 4, 3-(4-(benzo[d][1,3]dioxol-5-ylmethyl)piperazin-1-yl)-1-(4-chlorobenzyl)pyrrolidine-2,5-dione] | 65.2 ± 6.6 |
